A short description of series [1]: Stability of aminoacylated pdCpA in buffers and on storage (LC-MS). It counts as physicochemical. The settings on record: for % by LC-MS during StBu deprotection: 250 μM Compound 2n-A, 50 mM Tris-HCl pH 7, 10 mM DTT. The protocol: The side chain StBu of pdCpA-Cys was deprotected using the precursor Compound 2n-A, and the following experiment was carried out to examine stability of the deprotected Compound 2e-A. The side chain was deprotected at room temperature under the conditions of 250 μM of Compound 2n-A, 50 mM Tris-HCl buffer, pH 7, and 10 mM DTT, and the time course of the deprotection was observed by LC-MS (SQD). The intended Compound 2e-A was not observed, and pdCpA resulting from hydrolysis of pdCpA-Cys was observed. After 5 minutes, Compound 2n-A was 51%, Compound 2e-A was 0%, and pdCpA was 49%. After 2 hours, deprotection was completed and Compound 2n-A was 0%, but Compound 2e-A was 0% and all hydrolized so that pdCpA was 100% (FIG. 13).
Stability of Compound 2n-A with the SH group of Cys protected was evaluated. Storage samples were prepared under five conditions as shown in the following Table 2 were prepared, respectively, and analyzed by LC-MS.
Stability of Compound 2n-B with the SH group of MeCys protected was also evaluated. Storage samples were prepared under four conditions as shown in the following Table 3 were prepared and analyzed by LC-MS.

Series [2] is described as follows: Metabolic stability in mouse hepatic microsome. It counts as in vitro ADME. Conditions: 0.5 mg protein/mL, 1 uM, 30 minutes; for Hepatic Microsome CLh, int (Mouse) In the absence of NADPH: without NADPH; for microsomal CLint at 1 uM: male, mouse, liver microsomes, pH 7.4, with NADPH, read-out: Hepatic Microsome CLh, int (Mouse) In the presence of NADPH. The protocol: (§1) The obtained compound was metabolically reacted at a concentration of 2 uM with mouse serum (male/female mixed, Valley Biomedical, USA) (adjusted to pH 7.4 with 33.5 mM HEPES buffer) for two hours. Deproteinization treatment with acetonitrile was provided over time, the amount of the remaining unchanged compound was analyzed using LC/MS, and the metabolic half-life (t1/2) was calculated. A microsome solution prepared at 0.5 mg protein/mL from mouse hepatic microsome and small intestinal microsome (male, XENOTECH, USA) using 100 mM phosphate buffer (pH 7.4) was metabolically reacted with the compound at a concentration of 1 uM for 30 minutes in the presence or absence of NADPH. Deproteinization treatment with acetonitrile was provided over time, the amount of the remaining unchanged compound was analyzed using LC/MS, and the hepatic-intrinsic clearance (CLh, int) and the small intestinal-intrinsic clearance (CLg, int) were calculated (Table 7). Such peptides were sufficiently slowly metabolized by hydrolysis with peptidases or the like in mouse sera and microsomes, contrary to peptides composed of natural amino acids having low lipophilicity.
Metabolic stability tests were carried out in the same manner as shown in 2-1.

Series [3] can be described thus: Serum stability test in mouse serum. The class given is in vitro ADME. The settings on record: both sexes, pH 7.4, two hours, read-out: Serum stability t1/2 (Mouse). The protocol: as §1
Series [4] in a line: PAMPA (parallel artificial membrane permeability assay). The class given is in vitro ADME. Conditions: PAMPA, pH 6.5. Summed up:
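Artificial membrane was 10% (w/v) egg lecithin plus 0.5% (w/v) cholesterol in dodecane on a PVDF filter. A 10 mM DMSO stock was added at 0.5% (v/v) to donor buffer (50 mM MOPSO, pH 6.5, 5.0% glycocholic acid). After 18 h at 37 °C, LC/MS or LC/UV gave donor and acceptor levels for Pe.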
In general terms: PAMPA measures passive passage across an artificial lipid membrane.

Series [5] in a line: in vivo. Conditions: male, C57BL/6J, mouse, 20 mg/kg.
Series [6] can be described thus: Metabolic stability in human hepatic microsome. The settings on record: human, microsomes, pH 7.4, CL NADPH(+). It counts as in vitro ADME.
The mark [7] stands for this setting: room temperature, after 5 minutes.
[8] abbreviates: room temperature, after 2 hours.
The mark [9] stands for this setting: In AcONa buffer, 1 mM, pH 5, room temperature, 1 hour.
[10] abbreviates: In DMSO, 5 mM, pH 4, 0° C., 2.5 days.
The mark [11] stands for this setting: In HEPES buffer, 1 mM, pH 7, room temperature, 1 hour.
Setting [12] is: Stored as solid, room temperature, 16 days.
Where [13] appears, read: pdCpA-MeCys(StBu): In AcONa buffer, 1 mM, pH 5, room temperature, 5 hours.
The mark [14] stands for this setting: pdCpA-MeCys(StBu): In DMSO, 5 mM, pH 4, 0° C., 1 day.
Where [15] appears, read: pdCpA-MeCys(StBu): In HEPES buffer, 1 mM, pH 7, room temperature, 1 hour.
Where [16] appears, read: pdCpA-MeCys(StBu): In Tris buffer, 1 mM, pH 7, room temperature, 1 hour.

Positions of bridges follow the written chain, without caps; N, C: chain ends. Non-standard residues stand in square brackets, D forms with d. Residues, ends and D or L forms follow the SMILES beside them. *: point of attachment. Bip = N[C@@H](Cc1ccc(-c2ccccc2)cc1)C(=O)O; NMeF = CN[C@@H](Cc1ccccc1)C(=O)O; NMeI = CC[C@H](C)[C@H](NC)C(=O)O; NMeL = CN[C@@H](CC(C)C)C(=O)O; NMeV = CN[C@H](C(=O)O)C(C)C; NMeA = CN[C@@H](C)C(=O)O; Piperidide = C1CCN(*)CC1; Sar = CNCC(=O)O; tBu = CC(C)(C)*

Regarding `CC(C)(C)SSC[C@H](N)C(=O)O[C@H]1[C@@H](O)[C@H](n2cnc3c(N)ncnc32)O[C@@H]1COP(=O)(O)O[C@H]1C[C@H](n2ccc(N)nc2=O)O[C@@H]1COP(=O)(O)O` [Compound 2n-A, (2R)-(2R,3S,4R,5R)-2-((((((2R,3S,5R)-5-(4-amino-2-oxopyrimidin-1(2H)-yl)-2-((phosphonooxy)methyl)tetrahydrofuran-3-yl)oxy)(hydroxy)phosphoryl)oxy)methyl)-5-(6-amino-9H-purin-9-yl)-4-hydroxytetrahydrofuran-3-yl 2-amino-3-(tert-butyldisulfanyl)propanoate], the “% by LC-MS during StBu deprotection” value in series [1] (setting [7]) came to 51%; in series [1] (setting [8]) it was 0%. Also, the “% remaining by LC-MS” value in series [1] (setting [9]) is recorded as 70%; in series [1] (setting [10]), 58%; in series [1] (setting [11]) it was 30%; in series [1] (setting [12]), 64%.
Regarding `CC[C@H](C)[C@H]1C(=O)N[C@@H](Cc2ccc(-c3ccccc3)cc2)C(=O)N[C@H](C(=O)N2CCCCC2)CSCC(=O)N(C)[C@@H](CC(C)C)C(=O)N[C@@H]([C@@H](C)O)C(=O)N(C)CC(=O)N(C)[C@@H](CC(C)C)C(=O)N[C@@H](CO)C(=O)N1C` [Compound P-104, Ac*-MeLeu-Thr-MeGly-MeLeu-Ser-MeIle-Bip-Cys*-piperidine] ({CH2CO}-[NMeL]T[Sar][NMeL]S[NMeI][Bip]C-Piperidide; thioether N-8), in series [2], the “Hepatic Microsome CLh, int (Mouse) In the absence of NADPH” value was found to be 6.9 ul/min/mg Protein and the microsomal CLint at 1 uM worked out at 106 µL/min/mg. In addition, in series [3], the half-life at 2 uM was more than 2.5 days.
The like results for `CC(C)C[C@H]1C(=O)N[C@H](C(=O)N2CCCCC2)CSCC(=O)N(C)[C@@H](Cc2ccccc2)C(=O)N(C)[C@@H](C)C(=O)N[C@@H](Cc2ccccc2)C(=O)N(C)[C@@H](CC(C)C)C(=O)N[C@@H]([C@@H](C)O)C(=O)N(C)CC(=O)N1C` [Compound P-105, Ac*-MePhe-MeAla-Phe-MeLeu-Thr-MeGly-MeLeu-Cys*-piperidine] ({CH2CO}-[NMeF][NMeA]F[NMeL]T[Sar][NMeL]C-Piperidide; thioether N-8) were, in that order, 5.1 ul/min/mg Protein, 278 µL/min/mg and more than 2.5 days.
The matching figures for `CC(C)C[C@H]1C(=O)N[C@@H](COC(C)(C)C)C(=O)N[C@H](C(=O)N2CCCCC2)CSCC(=O)N(C)[C@@H](C)C(=O)N[C@@H](Cc2ccccc2)C(=O)N(C)[C@@H](CC(C)C)C(=O)N[C@@H]([C@@H](C)O)C(=O)N(C)CC(=O)N1C` [Compound P-106, Ac*-MeAla-Phe-MeLeu-Thr-MeGly-MeLeu-Ser(tBu)-Cys*-piperidine] ({CH2CO}-[NMeA]F[NMeL]T[Sar][NMeL]S(tBu)C-Piperidide; thioether N-8): 1.9 ul/min/mg Protein, 151 µL/min/mg and more than 2.5 days.
In turn, `CC(C)C[C@H]1C(=O)N2CCC[C@H]2C(=O)N(C)[C@@H](CC(C)C)C(=O)N[C@@H](C)C(=O)N(C)[C@@H](C(C)C)C(=O)N[C@H](C(=O)N2CCCCC2)CC(=O)N(C)[C@@H](C)C(=O)N[C@@H]([C@@H](C)O)C(=O)N(C)CC(=O)N(C)[C@@H](Cc2ccccc2)C(=O)N(C)[C@@H](Cc2ccccc2)C(=O)N1C` [DP-67] ([NMeA]T[Sar][NMeF][NMeF][NMeL]P[NMeL]A[NMeV]D-Piperidide; lactam N-11) gave an apparent permeability coefficient (Papp) at 18 hours, 50 µM in series [4] of 23 ×10⁻⁶ cm/s. Further, in series [5] (iv), the exposure (AUC) turned out to be 70700 ng·h/mL, the C0 was found to be 102 µg/mL, the Vd amounted to 0.431 L/kg and the clearance was 4.74 mL/min/kg. The molecule further had a half-life in series [5] (iv) of 195 min. In addition, in series [5] (po), the area under the curve (AUC) was 10900 ng·h/mL, the apparent clearance CL/F was 37.9 mL/min/kg, the Cmax came to 2310 ng/mL and the Tmax amounted to 3.5 h. In addition, in series [5] (po), the bioavailability was 15.5% and the half-life was 262 min. In series [6], this molecule had a microsomal CLint at 1 uM of 15 µL/min/mg.
`CC[C@H](C)[C@H]1C(=O)N[C@@H]([C@@H](C)O)C(=O)N(C)CC(=O)N(C)[C@@H](CC(C)C)C(=O)N[C@H](C(=O)N2CCCCC2)CC(=O)N(C)[C@@H](C)C(=O)N[C@@H](CC(C)C)C(=O)N(C)[C@@H](CC(C)C)C(=O)N(C)[C@@H](Cc2ccccc2)C(=O)N[C@@H](C)C(=O)N(C)[C@@H](Cc2ccccc2)C(=O)N1C` [DP-101] ([NMeA]L[NMeL][NMeF]A[NMeF][NMeI]T[Sar][NMeL]D-Piperidide; lactam N-11) showed a Papp at 18 hours, 50 µM in series [4] of 56 ×10⁻⁶ cm/s. In series [5] (iv), this molecule displayed an AUC of 83300 ng·h/mL, a C0 of 112 µg/mL, a volume of distribution (Vd) of 0.455 L/kg and a clearance of 4.01 mL/min/kg. The half-life in series [5] (iv) was 115 min. Besides, in series [5] (po), the AUC was determined as 12700 ng·h/mL, the apparent clearance CL/F stood at 26.2 mL/min/kg, the highest level (Cmax) was 2320 ng/mL and the Tmax is 1.83 h. Besides, in series [5] (po), the bioavailability was 15.2% and the half-life is 136 min. This molecule showed a microsomal CLint at 1 uM in series [6] of 101 µL/min/mg.
In the case of `Nc1ccn([C@H]2C[C@H](OP(=O)(O)OC[C@H]3O[C@@H](n4cnc5c(N)ncnc54)[C@H](O)[C@@H]3O)[C@@H](COP(=O)(O)O)O2)c(=O)n1` [pdCpA, ((2R,3S,5R)-5-(4-amino-2-oxopyrimidin-1(2H)-yl)-3-(((((2R,3S,4R,5R)-5-(6-amino-9H-purin-9-yl)-3,4-dihydroxytetrahydrofuran-2-yl)methoxy)(hydroxy)phosphoryl)oxy)tetrahydrofuran-2-yl)methyl dihydrogenphosphate, reference compound], the “% by LC-MS during StBu deprotection” value in series [1] (setting [7]) is 49%; in series [1] (setting [8]), 100%. Also, the “% remaining by LC-MS” value in series [1] (setting [9]) is on record as 30%; in series [1] (setting [10]) it was 42%; in series [1] (setting [11]), 70%; in series [1] (setting [12]) it was 36%; in series [1] (setting [13]), 0%; in series [1] (setting [14]) it was 0%. For the same molecule, the “% remaining by LC-MS” value in series [1] (setting [15]) stood at 51%; in series [1] (setting [16]), 65%.
`CN[C@@H](CSSC(C)(C)C)C(=O)O[C@H]1[C@@H](O)[C@H](n2cnc3c(N)ncnc32)O[C@@H]1COP(=O)(O)O[C@H]1C[C@H](n2ccc(N)nc2=O)O[C@@H]1COP(=O)(O)O` [pdCpA-MeCys(StBu), (2R)-(2R,3S,4R,5R)-2-((((((2R,3S,5R)-5-(4-amino-2-oxopyrimidin-1(2H)-yl)-2-((phosphonooxy)methyl)tetrahydrofuran-3-yl)oxy)(hydroxy)phosphoryl)oxy)methyl)-5-(6-amino-9H-purin-9-yl)-4-hydroxytetrahydrofuran-3-yl 3-(tert-butyldisulfanyl)-2-(methylamino)propanoate]: the “% remaining by LC-MS” value in series [1] (setting [13]) is recorded as 100%; in series [1] (setting [14]), 100%; in series [1] (setting [15]), 49%; in series [1] (setting [16]) it was 35%.

Usually Papp stands for the rate of passage across a membrane or cell layer, normalised by area and donor concentration. By AUC is commonly meant the area under the concentration-time curve, a measure of exposure. A higher AUC goes with high exposure. What is called Vd is a proportionality between amount in the body and measured concentration, not a real space. Low values mean little distribution into tissue, high ones wide distribution into tissue. The clearance is the volume of plasma or blood freed of the substance per unit of time. By CL/F is commonly meant the apparent clearance, not corrected for the fraction that reaches the circulation. In general, Cmax refers to the maximum level reached in the sampled fluid or tissue. As a reminder, the Tmax is the time from dosing to the highest level. The bioavailability is dose-corrected exposure relative to a reference, in per cent. The low end stands for little systemic uptake, the high end for much systemic uptake.

The values are drawn from patent US9409952B2, “Peptide-compound cyclization method” (Chugai Seiyaku Kabushiki Kaisha, priority 2011, dated 2016).
